Test results taken from patent publication US20130202649A1, “ACTIVATION OF INNATE IMMUNITY FOR NUCLEAR REPROGRAMMING OF SOMATIC CELLS” (The Board of Trustees of the Leland Stanford Junior …, priority 2012, published 2013).

Legend:
NF-κB = NF-κB luciferase assay; format: cell-based, human; details: BJ fibroblasts; poly IC 300 ng/ml
Experimental: NF-κB Luciferase assay BJ fibroblasts (3×105) were seeded in a 6-well plate and subjected to either pMX-GFP infection, CPP-SOX2 treatment with or without poly IC (300 ng/ml). Cells were transfected with pNF-κB-Luc and pFC-MEKK as a positive control plasmid using Lipofectamine 2000. Twentyfour hours post-transfection, cells were collected for measuring the luciferase activity by the Bright-Glo™ Luciferase Assay System using a luminometer.

HDAC = HDAC expression (cDNA profiling, Western); format: cell-based, human
Description: Histone acetylation status influences the folding and functional state of the chromatin and modulates the accessibility of DNA to the transcriptional machinery for gene expression. Histone de-acetylation is generally associated with a closed chromatin state, and inhibitors of histone de-acetylase (HDAC) such as valproic acid are employed to enhance nuclear reprogramming. […] The downregulation of HDAC1 expression by poly I:C was confirmed by Western analysis (FIG. 17).
Gene Expression and Microarray Analyses RNA was isolated with the RNeasy kit. First-strand cDNA was primed with oligo(dT) primers and qPCR was performed with primer sets from Applied Biosystems. RNA probes were prepared and hybridized to Illumina HumanHT-12 v4 Expression BeadChip microarrays.
(§1) Western Blotting Proteins were extracted from BJ fibroblasts by solubilizing the cells in RIPA buffer containing 1× protease inhibitor cocktail. 25 μg of total protein was loaded and resolved on SDSpolyacrylamide gels, transferred to PVDF membranes and probed with the following primary antibodies: anti-HP1α and anti-HDAC (Cell Signaling), and β-actin (Sigma, A5441). Immunoblots were developed with enhanced chemiluminescence reagents (Amersham).

[1] = system: human foreskin fibroblasts (BJ); test: Transdifferentiation of human fibroblasts to endothelial cells (FACS); format: cell-based; details: Poly I:C 30 ng/ml
Experimental: FIG. 21: Direct reprogramming of human fibroblasts to functional endothelial cells via innate immunity activation and microenvironmental cues: (A) Protocol for direct reprogramming of human BJ fibroblasts to endothelial cells. The figure describes the time course and sequential treatments of different medias: Human fibroblasts were treated with Poly I:C (30 ng/ml) for 7 days in differentiation medium I containing DMEM/FBS and 7.5% knockout serum replacement (KSR). Following 7 days, the medium was changed to differentiation medium II containing DMEM/FBS and 10% KSR containing 20 ng/ml BMP4, 50 ng/ml VEGF and 20 ng/ml bFGF. After another 7 days, the medium was replaced with endothelial medium (EGM2) containing 50 ng/ml VEGF, 20 ng/ml bFGF and 0.1 mM 8-Br-cAMP for another 14 days. The medium was changed every 2-3 days. […] (B) Fluorescent activated cell sorting (FACs) plot of data obtained using CD31+ antibody to quantitate iECs. […]
Innate immunity (TLR3 signaling) enables efficient transdifferentiation of fibroblasts to ECs: To determine whether TLR3 signaling was necessary for efficient transdifferentiation of human fibroblasts, we assessed direct differentiation in BJ fibroblasts previously treated with scrambled shRNA or shRNA to knockdown (KD) the expression of TLR3. […]

[2] = system: heterochromatin protein 1 (HP1); test: HP1 distribution (confocal microscopy) and expression (Western); format: cell-based, human
Experimental: In addition, the changes in methylation status of the Oct4 and Sox2 promoters that were accelerated by TLR3 activation were also associated with an accelerated redistribution of heterochromatin protein 1 (HP1; FIGS. 19A and 19B). HP1 that is bound to methylated H3K9 recruits the methylase Suv39h, leading to further methylation of H3K9, so as to consolidate a repressed state. The redistribution of HP1 induced by poly I:C is consistent with genome-wide epigenetic alterations induced by TLR3 activation. Histone acetylation favors an open chromatin state, maintained by proteins containing histone acetyltransferase (HAT) domains, such as p300 and CBP. NF-κB is a transcriptional effector of TLR3 activation, and interacts with CBP/p300 to positively regulate gene expression. […] This effect was mediated by TLR3, as shRNA knockdown of TLR3 or its adaptor protein TRIF1 reduced the effect of poly I:C on NF-κB activation (FIG. 20).
Heterochromatin protein-1 (HP1) is associated with the closed conformation of chromatin. […] The fact that the current work implicated TRIF signaling likely aligns with the fact that the retrovirus RNA provides adequate TLR3 signaling to trigger NF-κB, IRF3 and IFN. While TLR3 mimicked signaling from the retrovirus vector, other TLR agonists as well as agonists for NOD-like receptors, RIG-1-like receptors, cytosolic DNA sensors and C-type lectin receptors, drive a similar inflammatory response converging on NF-κB, IRF-3 and IFNβ.
as §1

For “Polyinosinicpolycytidylic acid [Poly I:C]”, which “NF-κB activation (luciferase reporter)” value (NF-κB) is on record?
The value was “induced NF-κB activation”.

And the “expression of a suite of HDAC genes” value (HDAC; CPP treated human fibroblasts)?
The value was “downregulated”.

What about the “HDAC 1 protein expression (immunoblot)” value (HDAC; day 2 to day 6) of the same substance?
Its value is “early (day 2) and sustained (to day 6) inhibition”.

What about the “transdifferentiation of fibroblasts to iECs” value [1] of the same substance?
The value was “significantly enhanced”.

What about the “cells expressed CD31” value ([1]; 28 days of differentiation, FACS, relative to the vehicle control) of the same substance?
Its value is “Approximately 2%”.

What about the “distribution of HP1” value ([2]; co-administered with CPP-SOX2) of the same substance?
The value was “marked changes in its distribution”.

What about the “expression of HP-1α (immunoblot)” value ([2]; day 2 to day 6) of the same substance?
The value was “unaffected”.

What about the “distribution of HP1” value ([2]; in the absence of the CPP) of the same substance?
Its value is “no observable redistribution”.
